From patent US11384079B2, “6-5 fused rings as C5a inhibitors” (CHEMOCENTRYX, INC., priority 2017, dated 2022) come the findings set out here.

This experiment concerns the target T1, C5aR (Homo sapiens, UniProt P21730).
T1 construct: U937 cells are a monocytic cell line which express C5aR; host or cells: U937 cells (cAMP treated) or isolated neutrophils
T1 sequence (P21730 1-350): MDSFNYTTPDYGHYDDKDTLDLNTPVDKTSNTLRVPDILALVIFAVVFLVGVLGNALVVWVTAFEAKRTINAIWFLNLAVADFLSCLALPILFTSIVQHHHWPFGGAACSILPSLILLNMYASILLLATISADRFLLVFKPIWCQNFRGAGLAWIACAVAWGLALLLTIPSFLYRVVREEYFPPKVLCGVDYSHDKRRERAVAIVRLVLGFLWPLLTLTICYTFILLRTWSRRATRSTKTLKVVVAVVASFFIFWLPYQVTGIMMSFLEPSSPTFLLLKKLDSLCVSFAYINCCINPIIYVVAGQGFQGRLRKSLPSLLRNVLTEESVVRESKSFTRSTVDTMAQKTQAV
As to the kind of experiment: chemotaxis assay (C5aR mediated migration). It counts as cell-based. Particulars: migration of U937 or neutrophil cells toward C5a (0.03 nM), 1.5 hours at 37° C., read-out: Mig IC50. The method, then: U937 cells are a monocytic cell line which express C5aR, and are available from ATCC (VA). […] Cells were grown under 5% CO2/95% air, 100% humidity at 37° C. and subcultured twice weekly at 1:6 (cells were cultured at a density range of 1×10^5 to 2×10^6 cells/mL) and harvested at 1×10^6 cells/mL. Prior to assay, cells are treated overnight with 0.5 mM of cyclic AMP (Sigma, Ohio) and washed once prior to use. cAMP treated U937 cells can be used in C5aR ligand binding and functional assays.
Optionally, human or murine neutrophils can be used to assay for compound activity. Neutrophils may be isolated from fresh human blood using density separation and centrifugation. Briefly, whole blood is incubated with equal parts 3% dextran and allowed to separate for 45 minutes. After separation, the top layer is layered on top of 15 mls of Ficoll (15 mls of Ficoll for every 30 mls of blood suspension) and centrifuged for 30 minutes at 400×g with no brake. The pellet at the bottom of the tube is then isolated and resuspended into PharmLyse RBC Lysis Buffer (BD Biosciences, San Jose, Calif.) after which the sample is again centrifuged for 10 minutes at 400×g with brake. The remaining cell pellet is resuspended as appropriate and consists of isolated neutrophils.
Optionally, compounds may be further assayed for their ability to inhibit chemotaxis in cells. Chemotaxis assays are performed using 5 μm pore polycarbonate, polyvinylpyrrolidone-coated filters in 96-well chemotaxis chambers (Neuroprobe; Gaithersburg, Md.) using chemotaxis buffer (Hank's balanced salt solution (HBSS) and 1% FBS). C5aR ligands (i.e., C5a, R&D Systems; Minneapolis, Minn.) are use to evaluate compound mediated inhibition of C5aR mediated migration. Other chemokines (i.e., SDF-1α; R&D Systems; Minneapolis, Minn.) are used as specificity controls. […] The chambers are incubated 1.5 hours at 37° C., and the number of cells in the lower chamber quantified either by direct cell counts in five high powered fields per well or by the CyQuant assay (Molecular Probes), a fluorescent dye method that measures nucleic acid content and microscopic observation.
The term IC50 denotes the midpoint of a concentration-inhibition curve. On to `CCc1cccc(CC)c1-n1nc2c(c1-c1ccc(Cl)c3[nH]ccc13)CN(c1ncc(OC(C)C)cn1)CC2` [Example 1.063], for which the IC50 is below 5 nM.

Turning to `Cc1cccc(OCC(C)C)c1-n1nc2c(c1-c1ccc3[nH]ccc3c1)CN(Cc1ccc(C(F)(F)F)cc1C(F)(F)F)CC2` [Example 1.234], the IC50 is 5 to 50 nM. With `CCc1cccc(CC)c1-n1nc2c(c1-c1c(F)cc(Cl)c3[nH]ccc13)CN(c1ncc(C(F)(F)F)cc1F)CC2` [Example 1.144] the figure was below 5 nM; with `CCc1cccc(CC)c1-n1nc2c(c1-c1cc(Cl)c(OC)c3[nH]ccc13)CN(c1ncc(C(F)(F)F)cn1)CC2` [Example 1.044], below 5 nM. With `CCc1cccc(CC)c1-n1nc2c(c1-c1ccc(C)c3[nH]ccc13)CN(c1ncc(C(F)(F)F)cc1F)CC2` [Example 1.181], the IC50 was below 5 nM. The same measure for `CCc1cccc(CC)c1-n1nc2c(c1-c1ccc(Cl)c3[nH]ccc13)CN(c1ncc(C3CC3)cc1Cl)CC2` [Example 1.073]: below 5 nM. The same measure for `CCc1cccc(CC)c1-n1nc2c(c1-c1cc(F)c(Cl)c3[nH]ccc13)CN(c1ncc(C(F)(F)F)cn1)CC2` [Example 1.084]: below 5 nM; for `CCc1cccc(CC)c1-n1nc2c(c1-c1cc(F)c(C)c3[nH]ccc13)CN(c1ncc(C(C)C)cn1)CC2` [Example 1.115]: below 5 nM; for `CCc1cccc(CC)c1-n1nc2c(c1-c1ccc(CO)c3[nH]ccc13)CN(c1ncc(C(F)(F)F)cc1F)CC2` [Example 1.174]: below 5 nM. With `CCc1cccc(CC)c1-n1nc2c(c1-c1c(F)cc(Cl)c3[nH]ccc13)CN(c1ncc(C3CC3)cn1)CC2` [Example 1.070] the figure was below 5 nM; with `CCc1cccc(CC)c1-n1nc2c(c1-c1cnc(C)c3[nH]ccc13)CN(c1ncc(C(F)(F)F)cn1)CC2` [Example 1.027], 5 to 50 nM; with `CCc1cccc(CC)c1-n1nc2c(c1-c1c(F)cc(C)c3[nH]ccc13)CN(c1ncc(C(F)(F)F)cc1F)CC2` [Example 1.150], below 5 nM. Take `Cc1cccc(OCC(C)C)c1-n1nc2c(c1-c1ccc3[nH]cc(C)c3c1)CN(c1ncc(C(F)(F)F)cc1F)CC2` [Example 1.204]: the IC50 fell in the range of 50 to 500 nM.

In the case of `CCc1cccc(CC)c1-n1nc2c(c1-c1c(F)cc(CO)c3[nH]ccc13)CN(c1ncc(C(C)C)cn1)CC2` [Example 1.098], the IC50 was below 5 nM.

`Cc1cnc(N2CCc3nn(-c4c(C)cccc4C)c(-c4ccc(Cl)c5[nH]ccc45)c3C2)nc1` [Example 1.154]: the IC50 lay in the range of 5 to 50 nM. With `CCc1cccc(CC)c1-n1nc2c(c1-c1cc(F)c(OC)c3[nH]cnc13)CN(c1ncc(C(F)(F)F)cn1)CC2` [Example 1.036] the figure was below 5 nM; with `CCc1cccc(CC)c1-n1nc2c(c1-c1ccc3[nH]ccc3c1)CN(Cc1c(Cl)cccc1C(F)(F)F)CC2` [Example 1.223], below 5 nM; with `CCc1cccc(CC)c1-n1nc2c(c1-c1ccc(C(C)(C)O)c3[nH]ccc13)CN(c1ncc(C(F)(F)F)cc1F)CC2` [Example 1.165], 50 to 500 nM. In the case of `CCc1cccc(CC)c1-n1nc2c(c1-c1ccc(Cl)c3[nH]ccc13)CN(c1ccc(C(C)C)cn1)CC2` [Example 1.135], the IC50 was below 5 nM. The same measure for `Cc1cccc(C)c1-n1nc2c(c1-c1c(F)cc(C)c3[nH]ccc13)CN(c1ncc(C(F)(F)F)cn1)CC2` [Example 1.092]: below 5 nM. The same measure for `CCc1cccc(CC)c1-n1nc2c(c1-c1cc(F)c(CO)c3[nH]ccc13)CN(c1ncc(C(F)(F)F)cn1)CC2` [Example 1.077]: below 5 nM. For the compound `CCc1cccc(CC)c1-n1nc2c(c1-c1ccc(F)c3[nH]ccc13)CN(c1ncc(C)cn1)CC2` [Example 1.177], the IC50 was below 5 nM.

`CCc1cccc(CC)c1-n1nc2c(c1-c1cc(F)c(F)c3[nH]ccc13)CN(c1ncc(C(F)(F)F)cn1)CC2` [Example 1.118]: the IC50 was in the range of 5 to 50 nM. The same measure for `Cc1cccc(OCC(C)C)c1-n1nc2c(c1-c1ccc3[nH]ccc3c1)CN(C(=O)OC(C)(C)C)CC2` [Example 1.018]: 5 to 50 nM; for `CCc1cccc(CC)c1-n1nc2c(c1-c1ccc3[nH]ccc3c1)CN(C(CC)CC)CC2` [Example 1.212]: below 5 nM; for `Cc1cccc(C)c1-n1nc2c(c1-c1c(F)cc(C)c3[nH]ccc13)CN(c1ncc(C(C)C)cn1)CC2` [Example 1.096]: below 5 nM.

For the compound `CCc1cccc(CC)c1-n1nc2c(c1-c1cncc3[nH]ccc13)CN(c1ncc(C(F)(F)F)cn1)CC2` [Example 1.022], the IC50 was 50 to 500 nM. Consider `COc1cccc(F)c1-n1nc2c(c1-c1cc(F)c(OC)c3[nH]ccc13)CN(c1ncc(C(F)(F)F)cn1)CC2` [Example 1.007], for which the IC50 fell in the range of 50 to 500 nM. Consider `Cc1cccc(C)c1-n1nc2c(c1-c1ccc3[nH]ccc3c1)CN(c1ncc(Cl)cc1Cl)CC2` [Example 1.197], for which the IC50 lay in the range of 5 to 50 nM.

Turning to `CCc1cccc(CC)c1-n1nc2c(c1-c1ccc3[nH]ccc3n1)CN(c1ncc(C(F)(F)F)cn1)CC2` [Example 1.010], the IC50 was above 500 nM.

`CCc1cccc(CC)c1-n1nc2c(c1-c1cc(F)c(CO)c3[nH]ccc13)CN(c1ncc(C(C)(C)O)cn1)CC2` [Example 1.068]: the IC50 fell in the range of 5 to 50 nM.

Turning to `CCc1cccc(CC)c1-n1nc2c(c1-c1ccc(Cl)c3[nH]ccc13)CN(c1ccc(C(F)(F)F)cn1)CC2` [Example 1.163], the IC50 is below 5 nM. As for `Cc1cccc(OCC(C)C)c1-n1nc2c(c1-c1ccc3[nH]ccc3c1)CN(C(C)(C)c1ccccc1)CC2` [Example 1.199], the IC50 was below 5 nM. With `CCc1cccc(CC)c1-n1nc2c(c1-c1cc(F)c(OC)c3[nH]cc(Cl)c13)CN(c1ncc(C(F)(F)F)cn1)CC2` [Example 1.032] the figure was below 5 nM; with `CCc1cccc(CC)c1-n1nc2c(c1-c1ccc(Cl)c3[nH]ccc13)CN(c1ncc(C(F)(F)F)cc1F)CC2` [Example 1.185], below 5 nM; with `Cc1cccc(OCC(C)C)c1-n1nc2c(c1-c1ccc3[nH]ccc3c1)CN(c1ncc(C(F)(F)F)cc1F)CC2` [Example 1.232], below 5 nM. The same measure for `CCc1cccc(CC)c1-n1nc2c(c1-c1cc(F)c(Cl)c3[nH]ccc13)CN(c1ncc(C(F)(F)F)cc1F)CC2` [Example 1.085]: below 5 nM; for `C=C(C)c1nsc(N2CCc3nn(-c4c(C)cccc4OCC(C)C)c(-c4ccc5[nH]ccc5c4)c3C2)n1` [Example 1.213]: 5 to 50 nM; for `CCc1cccc(CC)c1-n1nc2c(c1-c1ccc(Cl)c3[nH]ccc13)CN(c1ncc(OC)cn1)CC2` [Example 1.126]: below 5 nM. `CCc1cccc(CC)c1-n1nc2c(c1-c1ccc(C)c3[nH]ccc13)CN(c1ncc(C(C)C)cc1F)CC2` [Example 1.136]: the IC50 is below 5 nM.

Consider `CCc1cccc(CC)c1-n1nc2c(c1-c1ccc3[nH]ccc3c1)CN(C(C)c1ccccc1C(F)(F)F)CC2` (stereo not shown) [Example 1.202], for which the IC50 was 5 to 50 nM. The same measure for `CCc1cccc(CC)c1-n1nc2c(c1-c1c(F)cc(C)c3[nH]ccc13)CN(c1ccc(C(C)C)cn1)CC2` [Example 1.128]: below 5 nM. The same measure for `Cc1cccc(OCC(C)C)c1-n1nc2c(c1-c1ccc3[nH]ccc3c1)CN(c1ncc(C(F)(F)F)cc1Cl)CC2` [Example 1.216]: 5 to 50 nM; for `CCc1cccc(CC)c1-n1nc2c(c1-c1cc(F)c(OC)c3[nH]c(F)nc13)CN(c1ncc(C(F)(F)F)cn1)CC2` [Example 1.019]: 5 to 50 nM.

On to `CCc1cccc(CC)c1-n1nc2c(c1-c1cc(Cl)c(C)c3[nH]ccc13)CN(c1ncc(C(F)(F)F)cn1)CC2` [Example 1.081], for which the IC50 is below 5 nM. With `CCc1cccc(CC)c1-n1nc2c(c1-c1c(F)cc(CO)c3[nH]ccc13)CN(c1ncc(C(F)(F)F)cn1)CC2` [Example 1.101] the figure was below 5 nM. As to `Cc1cccc(C)c1-n1nc2c(c1-c1c(F)cc(C)c3[nH]ccc13)CN(c1ncc(Cl)cc1F)CC2` [Example 1.091], the IC50 lay within 5 to 50 nM. Turning to `Cc1cccc(OCC(C)C)c1-n1nc2c(c1-c1cccc3[nH]ccc13)CN(Cc1ccccc1C(F)(F)F)CC2` [Example 1.222], the IC50 lay in the range of 5 to 50 nM. The same measure for `CCc1cccc(CC)c1-n1nc2c(c1-c1nccc3[nH]ncc13)CN(c1ncc(C(F)(F)F)cn1)CC2` [Example 1.015]: 5 to 50 nM.
